According to patent US20260226427A1, “TEST SYSTEM COMPRISING STABLY CYP-TRANSFECTED OR TRANSDUCED MAMMALIAN CELLS” (BRANDENBURGISCHE TECHNISCHE UNIVERSITÄT COTTBUS-SENFTENBERG, priority 2023, published 2026):
Where two headings read alike, the source gives them in different places.

How the values were obtained:
CYP1A2 = biological target: T1, CYP1A2 (Homo sapiens, UniProt P05177)
T1 sequence (P05177 2-516 limits assumed): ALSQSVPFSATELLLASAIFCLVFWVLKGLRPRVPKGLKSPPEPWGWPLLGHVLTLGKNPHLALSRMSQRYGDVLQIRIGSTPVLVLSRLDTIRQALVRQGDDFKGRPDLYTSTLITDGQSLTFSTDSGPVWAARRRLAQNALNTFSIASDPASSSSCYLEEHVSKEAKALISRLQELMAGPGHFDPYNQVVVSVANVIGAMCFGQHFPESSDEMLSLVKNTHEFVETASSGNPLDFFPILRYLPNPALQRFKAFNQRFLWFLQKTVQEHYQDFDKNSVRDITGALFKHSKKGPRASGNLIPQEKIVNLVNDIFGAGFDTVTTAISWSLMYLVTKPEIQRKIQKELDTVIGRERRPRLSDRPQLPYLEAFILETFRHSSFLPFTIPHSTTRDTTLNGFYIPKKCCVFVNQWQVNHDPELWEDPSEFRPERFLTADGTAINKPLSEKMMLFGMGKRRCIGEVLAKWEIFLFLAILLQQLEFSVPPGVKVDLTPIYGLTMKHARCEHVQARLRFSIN

CYP3A4 [1] = biological target: T2, CYP3A4 (Homo sapiens, UniProt P08684)
T2 sequence (P08684 2-503 limits assumed): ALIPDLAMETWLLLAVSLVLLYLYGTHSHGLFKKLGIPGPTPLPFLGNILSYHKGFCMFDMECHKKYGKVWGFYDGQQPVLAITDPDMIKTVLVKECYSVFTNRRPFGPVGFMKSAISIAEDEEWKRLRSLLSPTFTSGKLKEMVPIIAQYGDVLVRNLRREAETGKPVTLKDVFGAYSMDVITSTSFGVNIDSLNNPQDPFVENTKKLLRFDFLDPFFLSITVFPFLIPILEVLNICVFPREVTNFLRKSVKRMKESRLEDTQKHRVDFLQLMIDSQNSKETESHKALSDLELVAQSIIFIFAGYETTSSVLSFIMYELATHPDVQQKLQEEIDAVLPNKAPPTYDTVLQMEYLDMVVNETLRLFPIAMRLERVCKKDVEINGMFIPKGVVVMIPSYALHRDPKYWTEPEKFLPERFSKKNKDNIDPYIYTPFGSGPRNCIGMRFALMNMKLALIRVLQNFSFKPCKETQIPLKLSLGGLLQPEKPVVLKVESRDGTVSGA

CYP3A4 [2] = biological target: T2, CYP3A4; remark: listed apart in the source

Compound | phenacetin metabolite production (CYP1A2; 2 h) [µg] | phenacetin metabolite production (CYP1A2; 48 h) [µg] | yield of main metabolite m(acetaminophen) (CYP1A2; 48 h) [µg] | yield of main metabolite (6β-hydroxytestosterone) in 200 μL preparation (CYP3A4 [1]) | yield of main metabolite in 200 μL metabolism preparation (CYP3A4 [1]) [ng] | yield of main metabolite m(6β-OH-T) (CYP3A4 [2]) [µg]
CCOc1ccc(NC(C)=O)cc1 [phenacetin] | 17 | 101 | 101 ± 4 |  |  | 
C[C@]12CC[C@H]3[C@@H](CCC4=CC(=O)CC[C@@]43C)[C@@H]1CC[C@@H]2O [testosterone] |  |  |  | up to 100 ng | 100 to 200 | 17.3 ± 1.4
